Assay results from patent US9228999B2, “Method for screening active agents that stimulate the expression of CERT to improve the skin's barrier function” (CHANEL PARFUMS BEAUTE, priority 2009, dated 2016).

System: CERT mRNA
Test: Test for screening active agents by real-time RT-PCR: expression of CERT mRNA in keratinocytes
Assay type: cell-based
Conditions: normal human keratinocytes (neonatal foreskin), 24 hours incubation, concentration 0.0005%, number of times of increase vs untreated (1.0), normalized to RPLPO
Procedure: The effect of two active agents on the expression of the mRNA of CERT was evaluated in keratinocytes. Keratinocytes derived from neonatal foreskins (Cascade Biologics/Invitrogen, Portland, Oreg., USA) are inoculated in 6-well plates and cultured in keratinocyte growth culture medium (Epilife, Invitrogen), i.e. a modified culture medium supplemented with EDGS. After culturing for 24 hours in an incubator at 37° C., the 70%-80% confluent cells are washed with PBS buffer (Invitrogen) and incubated with basic medium (Epilife, Invitrogen) containing the active agent to be tested, for 24 hours and in triplicate, at increasing concentrations. After studying the cytotoxicity of the active agent, its activity is evaluated. To quantify the expression of CERT messenger RNA in a treated sample relative to an untreated sample, first the RNA is isolated using the RNeasy reagent kit (Qiagen, CA, USA) and then quantified using the QuantIt kit (Invitrogen). Reverse transcription is performed using the gene Amp RNA PCR kit (Applied Biosystems) according to the manufacturer's recommendations. The real-time PCR measurement is performed using the iCYCLER IQ machine (Bio-Rad, CA, USA) with Taqman probes. […] The relative quantification of the expression of the target gene is performed using the Pfaffl mathematical model (Pfaffl, MW, Nucleic Acids Res. 29(9), p. […], 2001). […]

Structure (SMILES)	Stimulation of CERT mRNA
O=C(O)CCCC[C@@H]1CCSS1 (racemic) [Lipoic acid]	2.0
Oc1ccc(C=Cc2cc(O)cc(O)c2)cc1 [Resveratrol]	2.4
